Test results taken from US8288363B2, “Medicaments for anti-herpes virus treatments” (ASE & BIO, priority 2006, dated 2012).

How the values were obtained:
HSV-2 = assay: Anti-herpes activity, viability of infected vero cells (neutral red); type: cell-based, herpes simplex virus 2; settings: for EC50: MOI 0.01 ID50/cell
Description: (§1) This method is based on the principle that living cells absorb neutral red, which is a vital stain. The optical density of the medium was measured at the maximum absorption wavelength of neutral red, that is to say 540 nm, using a spectrophotometer (SpectraCount™, microplate photometer, Packard). The optical density at 540 nm is proportional to the number of living cells in an infected culture (McLaren et al., Antiviral Research, 1983; 3: 223-234 and Langlois et al., Standardization, 1986, 14: 201-211).
(§2) The effective concentration (EC 50%), that is to say the concentration of the sulphated polysaccharide which enables infection of 50% of the cells of a culture to be inhibited, was measured for each viral strain.
(§3) The determination of the EC50 was carried out in 96-well microtitre plates in accordance with the following protocol. Vero cells are seeded at a cell density of 3.5·10^4 cells/well in 100 μl of MEM medium containing 8% FCS. For each viral suspension defined by its MOI: • the negative control column was filled with 100 μl of MEM medium with 8% FCS, • the virus control column was filled with 50 μl of viral suspension having the required MOI and with 50 μl of MEM medium with 8% FCS, • the PS3 control column was filled with 50 μl of PS3 having the desired concentration range or with 50 μl of acyclovir (Zovirax 0.05-5 μg/ml • finally, all the other columns were filled successively with 50 μl of PS3 having the required concentration range or with 50 μl of acyclovir (Zovirax 0.05-5 μg/ml) and with 50 μl of the viral suspension having the desired MOI.
(§4) The EC50 corresponding to the concentration which enables the cytopathic effect of the virus to be reduced by 50% was calculated in accordance with the following formula: […]
(§5) The anti-herpes activity of PS3 was evaluated and compared on each viral suspension of HSV-1, HSV-1R, HSV-2 and HSV-2R defined by an MOI of 0.01 ID50/cell for a cell concentration of 350,000 cells/ml, after incubation times of 48 and 72 hours.
(§6) This series of experiments was carried out applying the protocol enabling the EC50 to be determined, as described in Example 3.
(§7) The therapeutic indices (TI) of PS3, as well as three other reference products, that is to say acyclovir, dextran sulphate and phycarine, were determined in parallel for each viral strain.
(§8) The therapeutic index (TI) represents the ratio between the maximum non-toxic dose (or a dose inducing a quantified toxicity) and the dose inducing a favourable pharmacological effect.

[1] = system: acyclovir-resistant strain HSV-2R; assay: as above; type: cell-based, herpes simplex virus 2; settings: for Anti-herpes activity (conclusion in words) / EC50: HSV-2R; for Anti-herpes activity (conclusion in words): 48 and 72 hours; for EC50: MOI 0.01 ID50/cell
Description: as §1, §2, §3, §4, §5, §6, §7, §8

[2] = system: HSV-1, HSV-1R, HSV-2 and HSV-2R; assay: Action on the viral infection: vero cells pretreated before infection; type: cell-based, herpes simplex virus
Description: The abovementioned viral suspensions of HSV-1, HSV-1R, HSV-2 and HSV-2R, defined by an MOI of 0.01 ID50/cell for a cell concentration of 350,000 cells/ml, were tested.
Acyclovir and dextran sulphate used at concentrations comprised between 0.05 and 5 μg/ml were used as reference products in this series of experiments. PS3 concentrations of 0.125 to 1,250 μg/ml were used, and the experiments were carried out in 96-well microtitre plates.
To verify whether PS3 protects a cell culture when it is used before its infection by the abovementioned viral strains, the procedure was as follows.
Vero cells were seeded at a cell density of […] in 100 μl of MEM medium containing 8% FCS.
A solution of 50 μl of PS3 or the comparison product, that is to say acyclovir having a given concentration, was then added to each well filled with 50 μl of MEM medium with 8% FCS.
The microtitre plate containing the cells treated with PS3 or the reference product was than placed in an oven at 37° C. for 6, 12 or 24 hours. The cells were then washed with 100 μl of MEM medium in order to remove the PS3 or the reference product.
A volume of 50 μl of a viral suspension was then added to each well, as well as 50 μl of MEM medium with 8% FCS; and the plates were kept at 4° C. for 1 hour.
The infected cells were then placed in an oven at 37° C. for 48 or 72 hours.

[3] = system: HSV-1, HSV-1R, HSV-2 and HSV-2R; assay: Virucidal action: viral suspensions treated before infection of vero cells; type: cell-based, herpes simplex virus
Description: To determine whether PS3 has a virucidal effect, the procedure was as follows.
Vero cells were seeded at a cell density of 3·10^4 cells/well of a microtitre plate in 100 μl of MEM medium containing 8% FCS for 24 hours before the test.
On the day of the test, 50 μl of each of the viral suspensions identified above were treated with 50 μl of PS3 or reference product (acyclovir) having a given concentration for one hour at 37° C.
An amount of 100 μl of the mixture of this viral suspension, to which PS3 or the reference product had been added, was introduced into each well of the microtitre plate. The plate was kept at 4° C. for one hour.
It is to be noted that controls of the growth of the cells and of the viruses were run simultaneously.
The plates containing the infected cells were then placed in an oven at 37° C. for 48 or 72 hours.
The virucidal effect of PS3 was evaluated by measurement of the EC50 values determined in accordance with the method described in Example 3.

[4] = system: HSV-1, HSV-1R, HSV-2 and HSV-2R; assay: Action as a function of the moment of use (time of addition); type: cell-based, herpes simplex virus; settings: for Inhibitory effect as a function of the moment of use: viral strains HSV-1R and HSV-2R, PS3 even when used 3 hours after infection, 72 hours
Description: To determine at what moment it is appropriate to use PS3, the procedure was as follows.
Vero cells were seeded at a cell density of 3.5·10^4 cells/well of a 96-well microtitre plate in 100 μl of MEM medium containing 8% FCS and they were then infected by being brought into contact with the various viral strains identified above for 1 hour at 4° C.
The infected cells were then washed with a saline buffer in order to remove the viral particles which had not be adsorbed.
The infected cells were then treated with PS3 or with the comparison product: • either at the moment of infection, • or 1, 2, 3 and 5 hours after infection.
In each case the microtitre plates were kept at 37° C. for 72 hours. The inhibitory effect of PS3 or of the comparison product, in this case acyclovir, was then determined for each viral strain.

[5] = non-resistant strains HSV-1 and HSV-2
[6] = strains HSV-1, HSV-2, HSV-1R, HSV-2R, cells pretreated 6, 12 or 24 hours, washed, then infected

| Molecule | Therapeutic index HSV-2 (HSV-2; incubation time 48 hours) | Therapeutic index HSV-2 (HSV-2; incubation time 72 hours) | Anti-herpes activity (conclusion in words) [1] | Therapeutic index HSV-2R ([1]; incubation time 48 hours) | Therapeutic index HSV-2R ([1]; incubation time 72 hours) | Effect before infection [2, 5] | Effect before infection [2, 6] | Virucidal effect [3, 5] | Effect in relation to the moment of addition [4, 5] | Inhibitory effect as a function of the moment of use [4] | Anti-herpes activity (conclusion in words) (HSV-2; HSV-2, 48 and 72 hours) | EC50 (HSV-2; HSV-2, after 48 hours of treatment) | EC50 (HSV-2; HSV-2, after 72 hours of treatment) | EC50 ([1]; after 48 hours of treatment) | EC50 ([1]; after 72 hours of treatment) | Virucidal effect ([3]; strains HSV-1, HSV-2, HSV-1R, HSV-2R, viral suspension treated one hour at 37° C.) | Effect in relation to the moment of addition ([4]; strains HSV-1, HSV-2, HSV-1R, HSV-2R) |
| --- | --- | --- | --- | --- | --- | --- | --- | --- | --- | --- | --- | --- | --- | --- | --- | --- | --- |
| Nc1nc2c(ncn2COCCO)c(=O)[nH]1 [Acyclovir, acyclovir, reference compound] | >579 | >613 | not effective | 0 | 0 | no | not protected | no | effective up | no effect |  |  |  |  |  |  |  |
| sulphated laminarin [PS3] | >4,808 | >1,344 | more effective than acyclovir | >3,788 | >1,712 |  | not protected and no |  |  | particularly effective | more effective than acyclovir | less than 2 μg/ml | less than 5 μg/ml | less than 2 μg/ml | less than 5 μg/ml | no virucidal effect and no | not very effective |
